Laboratory results: PubChem BioAssay (NCI)
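Here, GI50 denotes the concentration required for 50% inhibition of growth. The concentration for full growth arrest is given as TGI.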

Key:
Assay in all cases: growth of human tumour cells (NCI), 384-well format
[1] = test system: OVCAR-4 ovarian
[2] = test system: SK-MEL-5 melanoma
[3] = test system: SF-295 CNS
[4] = test system: HOP-62 NSCLC
[5] = test system: CAKI-1 renal
[6] = test system: OVCAR-5 ovarian
[7] = test system: NCI-H23 lung
[8] = test system: SK-MEL-28 melanoma
[9] = test system: DU-145 prostate
[10] = test system: NCI-H226 lung
[11] = test system: T-47D breast
[12] = test system: U251 glioblastoma
[13] = test system: OVCAR-8 ovarian
[14] = test system: SF-268 CNS
[15] = test system: MOLT-4 leukemia
[16] = test system: UACC-257 melanoma
[17] = test system: NCI-H460 NSCLC
[18] = test system: NCI-H322M lung
[19] = test system: NCI/ADR-RES ovarian
[20] = test system: HL-60(TB) leukemia
[21] = test system: IGROV1 ovarian
[22] = test system: MCF7 breast
[23] = test system: A498 renal
[24] = test system: HCT-15 colon
[25] = test system: ACHN renal
[26] = test system: SNB-75 CNS
[27] = test system: TK-10 renal
[28] = test system: BT-549 breast
[29] = test system: MDA-MB-468 breast
[30] = test system: SF-539 CNS
[31] = test system: MALME-3M melanoma
[32] = test system: SW-620 colon
[33] = test system: K-562 leukemia
[34] = test system: HCT-116 colon
[35] = test system: 786-0 renal
[36] = test system: MDA-MB-231 breast
[37] = test system: A549 NSCLC
[38] = test system: OVCAR-3 ovarian
[39] = test system: HOP-92 NSCLC
[40] = test system: EKVX NSCLC
[41] = test system: M14 melanoma
[42] = test system: NCI-H522 lung
[43] = test system: SK-OV-3 ovarian
[44] = test system: COLO 205 colon
[45] = test system: UO-31 renal
[46] = test system: MDA-MB-435 melanoma
[47] = test system: SN12C renal
[48] = test system: KM12 colon
[49] = test system: HS 578T breast
[50] = test system: RPMI-8226 leukemia
[51] = test system: PC-3 prostate
[52] = test system: HT29 colon
[53] = test system: SNB-19 CNS
[54] = test system: CCRF-CEM leukemia
[55] = test system: LOX IMVI melanoma
[56] = test system: SR leukemia
[57] = test system: RXF 393 renal
[58] = test system: HCC-2998 colon

In the case of `Cc1ccccc1N=Nc1ccc(NC(=O)c2ccnn2C)c(C)c1`, the GI50 [1] is reported as 47.7 µM, the TGI [1] is reported as > 100 µM and the GI50 [2] is reported as 11.2 µM. The TGI [2] was 87.1 µM, the GI50 [3] was 27.1 µM and the TGI [3] was > 100 µM. For the same compound, the GI50 [4] was 37.2 µM, the TGI [4] was > 100 µM and the GI50 [5] was > 100 µM. The TGI [5] was > 100 µM, the GI50 [6] was > 100 µM and the TGI [6] was > 100 µM. For the same compound, the GI50 [7] was 13.6 µM, the TGI [7] was > 100 µM and the GI50 [8] was > 100 µM. The TGI [8] was > 100 µM, the GI50 [9] was > 100 µM and the TGI [9] was > 100 µM. The GI50 [10] was 31.5 µM, the TGI [10] was > 100 µM and the GI50 [11] was 8.3 µM. The TGI [11] was > 100 µM, the GI50 [12] was 18 µM and the TGI [12] was 73.1 µM. The GI50 [13] was 46.4 µM, the TGI [13] was > 100 µM and the GI50 [14] was 96.7 µM. The TGI [14] was > 100 µM, the GI50 [15] was 30.4 µM and the TGI [15] was > 100 µM. The GI50 [16] was 40.2 µM, the TGI [16] was > 100 µM and the GI50 [17] was 6.69 µM. For the same compound, the TGI [17] was 27.3 µM, the GI50 [18] was 51.9 µM and the TGI [18] was > 100 µM. The GI50 [19] was 6.99 µM, the TGI [19] was > 100 µM and the GI50 [20] was 34.4 µM. For the same compound, the TGI [20] was > 100 µM, the GI50 [21] was > 100 µM and the TGI [21] was > 100 µM. The GI50 [22] was 36.8 µM, the TGI [22] was > 100 µM and the GI50 [23] was 90.4 µM. For the same compound, the TGI [23] was > 100 µM, the GI50 [24] was 54.4 µM and the TGI [24] was > 100 µM. The GI50 [25] was 95.2 µM, the TGI [25] was > 100 µM and the GI50 [26] was 25.8 µM. For the same compound, the TGI [26] was 99.7 µM, the GI50 [27] was 63.7 µM and the TGI [27] was > 100 µM. For the same compound, the GI50 [28] was 48.6 µM, the TGI [28] was > 100 µM and the GI50 [29] was 3.87 µM. The TGI [29] was 59.4 µM, the GI50 [30] was > 100 µM and the TGI [30] was > 100 µM. The GI50 [31] was > 100 µM, the TGI [31] was > 100 µM and the GI50 [32] was > 100 µM. The TGI [32] was > 100 µM, the GI50 [33] was 7.47 µM and the TGI [33] was > 100 µM. For the same compound, the GI50 [34] was 13.1 µM, the TGI [34] was > 100 µM and the GI50 [35] was 68.8 µM. The TGI [35] was > 100 µM, the GI50 [36] was 92.8 µM and the TGI [36] was > 100 µM. For the same compound, the GI50 [37] was > 100 µM, the TGI [37] was > 100 µM and the GI50 [38] was > 100 µM. For the same compound, the TGI [38] was > 100 µM, the GI50 [39] was 34.8 µM and the TGI [39] was > 100 µM. For the same compound, the GI50 [40] was 23.2 µM, the TGI [40] was > 100 µM and the GI50 [41] was > 100 µM. The TGI [41] was > 100 µM, the GI50 [42] was 15.4 µM and the TGI [42] was 93.1 µM. The GI50 [43] was > 100 µM, the TGI [43] was > 100 µM and the GI50 [44] was > 100 µM. For the same compound, the TGI [44] was > 100 µM, the GI50 [45] was > 100 µM and the TGI [45] was > 100 µM. For the same compound, the GI50 [46] was > 100 µM, the TGI [46] was > 100 µM and the GI50 [47] was > 100 µM. For the same compound, the TGI [47] was > 100 µM, the GI50 [48] was > 100 µM and the TGI [48] was > 100 µM. The GI50 [49] was 27.8 µM, the TGI [49] was > 100 µM and the GI50 [50] was 5.58 µM. The TGI [50] was > 100 µM, the GI50 [51] was > 100 µM and the TGI [51] was > 100 µM. The GI50 [52] was > 100 µM, the TGI [52] was > 100 µM and the GI50 [53] was > 100 µM. For the same compound, the TGI [53] was > 100 µM, the GI50 [54] was 13.8 µM and the TGI [54] was > 100 µM. For the same compound, the GI50 [55] was 39.4 µM, the TGI [55] was > 100 µM and the GI50 [56] was 2 µM. It also gave a TGI [56] of 7.31 µM, a GI50 [57] of 5.29 µM and a TGI [57] of 23.7 µM. For the same compound, the GI50 [58] was > 100 µM and the TGI [58] was > 100 µM.
